Measurements from ChEMBL document CHEMBL3352542, “Synthesis, biological evaluation and molecular modeling study of 2-(1,3,4-thiadiazolyl-thio and 4-methyl-thiazolyl-thio)-quinazolin-4-ones as a new class of DHFR inhibitors” (Bioorg Med Chem Lett, 2014).
The source made the active and inactive calls. No cut-off for these calls is given here.

Experiments:
UACC-62 = experiment: Growth inhibition of human UACC62 cells at 10 uM after 48 hrs; assay type: functional
PC-3 = experiment: Growth inhibition of human PC3 cells at 10 uM after 48 hrs; assay type: functional
SW-620 = experiment: Growth inhibition of human SW620 cells at 10 uM after 48 hrs; assay type: functional
OVCAR-8 = experiment: Growth inhibition of human OVCAR8 cells at 10 uM after 48 hrs; assay type: functional
RXF 393 = experiment: Growth inhibition of human RXF393 cells at 10 uM after 48 hrs; assay type: functional
OVCAR-5 = experiment: Growth inhibition of human OVCAR5 cells at 10 uM after 48 hrs; assay type: functional
SK-MEL-5 = experiment: Growth inhibition of human SK-MEL-5 cells at 10 uM after 48 hrs; assay type: functional
HCT-116 = experiment: Growth inhibition of human HCT116 cells at 10 uM after 48 hrs; assay type: functional
LOX IMVI = experiment: Growth inhibition of human LOXIMVI cells at 10 uM after 48 hrs; assay type: functional
HOP-92 = experiment: Growth inhibition of human HOP92 cells at 10 uM after 48 hrs; assay type: functional
RPMI-8226 = experiment: Growth inhibition of human RPMI8226 cells at 10 uM after 48 hrs; assay type: functional
ACHN = experiment: Growth inhibition of human ACHN cells at 10 uM after 48 hrs; assay type: functional
TK-10 = experiment: Growth inhibition of human TK10 cells at 10 uM after 48 hrs; assay type: functional
Escherichia coli = experiment: Antimicrobial activity against Escherichia coli assessed as inhibition zone at 200 ug/disk after 24 hrs by disc-diffusion method; assay type: functional; conditions: read-out: IZ
CAKI-1 = experiment: Growth inhibition of human CAKI-1 cells at 10 uM after 48 hrs; assay type: functional
Candida albicans = experiment: Antimicrobial activity against Candida albicans assessed as inhibition zone at 200 ug/disk after 24 hrs by disc-diffusion method; assay type: functional; conditions: read-out: IZ
UO-31 = experiment: Growth inhibition of human UO31 cells at 10 uM after 48 hrs; assay type: functional
M14 = experiment: Growth inhibition of human M14 cells at 10 uM after 48 hrs; assay type: functional
NCI/ADR-RES = experiment: Growth inhibition of human NCI-ADR-RES cells at 10 uM after 48 hrs; assay type: functional
Pseudomonas aeruginosa = experiment: Antimicrobial activity against Pseudomonas aeruginosa assessed as inhibition zone at 200 ug/disk after 24 hrs by disc-diffusion method; assay type: functional; conditions: read-out: IZ
SN12C = experiment: Growth inhibition of human SN12C cells at 10 uM after 48 hrs; assay type: functional
NCI-H522 = experiment: Growth inhibition of human NCI-H522 cells at 10 uM after 48 hrs; assay type: functional
HT-29 = experiment: Growth inhibition of human HT-29 cells at 10 uM after 48 hrs; assay type: functional
MDA-MB-435 = experiment: Growth inhibition of human MDA-MB-435 cells at 10 uM after 48 hrs; assay type: functional
786-0 = experiment: Growth inhibition of human 786-0 cells at 10 uM after 48 hrs; assay type: functional
Bacillus subtilis = experiment: Antimicrobial activity against Bacillus subtilis assessed as inhibition zone at 200 ug/disk after 24 hrs by disc-diffusion method; assay type: functional; conditions: read-out: IZ
Hs-578T = experiment: Growth inhibition of human Hs 578T cells at 10 uM after 48 hrs; assay type: functional
HCT-15 = experiment: Growth inhibition of human HCT15 cells at 10 uM after 48 hrs; assay type: functional
SNB-75 = experiment: Growth inhibition of human SNB75 cells at 10 uM after 48 hrs; assay type: functional
OVCAR-3 = experiment: Growth inhibition of human OVCAR3 cells at 10 uM after 48 hrs; assay type: functional
HCC 2998 = experiment: Growth inhibition of human HCC2998 cells at 10 uM after 48 hrs; assay type: functional
SNB-19 = experiment: Growth inhibition of human SNB19 cells at 10 uM after 48 hrs; assay type: functional
K562 = experiment: Growth inhibition of human K562 cells at 10 uM after 48 hrs; assay type: functional
COLO 205 = experiment: Growth inhibition of human COLO205 cells at 10 uM after 48 hrs; assay type: functional
NCI-H226 = experiment: Growth inhibition of human NCI-H226 cells at 10 uM after 48 hrs; assay type: functional
MDA-MB-231 = experiment: Growth inhibition of human MDA-MB-231 cells at 10 uM after 48 hrs; assay type: functional
Dihydrofolate reductase = target: T1, Dihydrofolate reductase (Bos taurus, UniProt P00376); experiment: Inhibition of bovine liver DHFR
T1 sequence (P00376 whole entry): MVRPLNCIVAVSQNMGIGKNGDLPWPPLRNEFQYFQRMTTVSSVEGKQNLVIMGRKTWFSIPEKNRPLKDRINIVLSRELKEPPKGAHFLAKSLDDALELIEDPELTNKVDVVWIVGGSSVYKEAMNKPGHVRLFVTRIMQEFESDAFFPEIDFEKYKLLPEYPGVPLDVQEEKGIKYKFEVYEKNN

MOLT-4 = experiment: Growth inhibition of human MOLT4 cells at 10 uM after 48 hrs; assay type: functional
UACC-257 = experiment: Growth inhibition of human UACC257 cells at 10 uM after 48 hrs; assay type: functional
U-251 = experiment: Growth inhibition of human U251 cells at 10 uM after 48 hrs; assay type: functional
OVCAR-4 = experiment: Growth inhibition of human OVCAR4 cells at 10 uM after 48 hrs; assay type: functional
HL-60(TB) = experiment: Growth inhibition of human HL-60(TB) cells at 10 uM after 48 hrs; assay type: functional
BT-549 = experiment: Growth inhibition of human BT549 cells at 10 uM after 48 hrs; assay type: functional
Staphylococcus aureus = experiment: Antimicrobial activity against Staphylococcus aureus assessed as inhibition zone at 200 ug/disk after 24 hrs by disc-diffusion method; assay type: functional; conditions: read-out: IZ
KM12 = experiment: Growth inhibition of human KM12 cells at 10 uM after 48 hrs; assay type: functional
SF-539 = experiment: Growth inhibition of human SF539 cells at 10 uM after 48 hrs; assay type: functional
SR = experiment: Growth inhibition of human SR cells at 10 uM after 48 hrs; assay type: functional
CCRF-CEM = experiment: Growth inhibition of human CCRF-CEM cells at 10 uM after 48 hrs; assay type: functional
Malme-3M = experiment: Growth inhibition of human MALME-3M cells at 10 uM after 48 hrs; assay type: functional
NCI-H460 = experiment: Growth inhibition of human NCI-H460 cells at 10 uM after 48 hrs; assay type: functional
MDA-MB-468 = experiment: Growth inhibition of human MDA-MB-468 cells at 10 uM after 48 hrs; assay type: functional
MCF7 = experiment: Growth inhibition of human MCF7 cells at 10 uM after 48 hrs; assay type: functional
SF-295 = experiment: Growth inhibition of human SF295 cells at 10 uM after 48 hrs; assay type: functional
A549 = experiment: Growth inhibition of human A549 cells at 10 uM after 48 hrs; assay type: functional
NCI-H23 = experiment: Growth inhibition of human NCI-H23 cells at 10 uM after 48 hrs; assay type: functional
T47D = experiment: Growth inhibition of human T47D cells at 10 uM after 48 hrs; assay type: functional
A498 = experiment: Growth inhibition of human A498 cells at 10 uM after 48 hrs; assay type: functional
SF-268 = experiment: Growth inhibition of human SF268 cells at 10 uM after 48 hrs; assay type: functional

SMILES: COc1cc2nc(Sc3sc(N)nc3C)n(-c3ccc(C)cc3)c(=O)c2cc1OC
- growth inhibition (GI) (UACC-62): inactive
- growth inhibition (GI) (PC-3): inactive
- growth inhibition (GI) (SW-620): inactive
- growth inhibition (GI) (OVCAR-8): inactive
- growth inhibition (GI) (RXF 393): inactive
- growth inhibition (GI) (OVCAR-5): inactive
- growth inhibition (GI) (SK-MEL-5): inactive
- growth inhibition (GI) (HCT-116): inactive
- growth inhibition (GI) (LOX IMVI): inactive
- growth inhibition (GI) (HOP-92): inactive
- growth inhibition (GI) (RPMI-8226): inactive
- growth inhibition (GI) (ACHN): inactive
- growth inhibition (GI) (TK-10): inactive
- zone of inhibition at 200 µg/disc (Escherichia coli): 8 mm
- growth inhibition (GI) (CAKI-1): inactive
- zone of inhibition at 200 µg/disc (Candida albicans): 8 mm
- growth inhibition (GI) (UO-31): inactive
- growth inhibition (GI) (M14): inactive
- growth inhibition (GI) (NCI/ADR-RES): inactive
- zone of inhibition at 200 µg/disc (Pseudomonas aeruginosa): 8 mm
- growth inhibition (GI) (SN12C): inactive
- growth inhibition (GI) (NCI-H522): inactive
- growth inhibition (GI) (HT-29): inactive
- growth inhibition (GI) (MDA-MB-435): inactive
- growth inhibition (GI) (786-0): inactive
- zone of inhibition at 200 µg/disc (Bacillus subtilis): 8 mm
- growth inhibition (GI) (Hs-578T): inactive
- growth inhibition (GI) (HCT-15): inactive
- growth inhibition (GI) (SNB-75): inactive
- growth inhibition (GI) (OVCAR-3): inactive
- growth inhibition (GI) (HCC 2998): inactive
- growth inhibition (GI) (SNB-19): inactive
- growth inhibition (GI) (K562): inactive
- growth inhibition (GI) (COLO 205): inactive
- growth inhibition (GI) (NCI-H226): inactive
- growth inhibition (GI) (MDA-MB-231): inactive
- IC50 (Dihydrofolate reductase): 8 µM
- growth inhibition (GI) (MOLT-4): inactive
- growth inhibition (GI) (UACC-257): inactive
- growth inhibition (GI) (U-251): inactive
- growth inhibition (GI) (OVCAR-4): inactive
- growth inhibition (GI) (HL-60(TB)): inactive
- growth inhibition (GI) (BT-549): inactive
- zone of inhibition at 200 µg/disc (Staphylococcus aureus): 8 mm
- growth inhibition (GI) (KM12): inactive
- growth inhibition (GI) (SF-539): inactive
- growth inhibition (GI) (SR): inactive
- growth inhibition (GI) (CCRF-CEM): inactive
- growth inhibition (GI) (Malme-3M): inactive
- growth inhibition (GI) (NCI-H460): inactive
- growth inhibition (GI) (MDA-MB-468): inactive
- growth inhibition (GI) (MCF7): inactive
- growth inhibition (GI) (SF-295): inactive
- growth inhibition (GI) (A549): inactive
- growth inhibition (GI) (NCI-H23): inactive
- growth inhibition (GI) (T47D): inactive
- growth inhibition (GI) (A498): inactive
- growth inhibition (GI) (SF-268): inactive

SMILES: Cc1nc(N)sc1Sc1nc2ccc(Cl)cc2c(=O)n1-c1ccc(Cl)cc1
- growth inhibition (GI) (UACC-62): inactive
- growth inhibition (GI) (PC-3): inactive
- growth inhibition (GI) (SW-620): inactive
- growth inhibition (GI) (OVCAR-8): inactive
- growth inhibition (GI) (RXF 393): inactive
- growth inhibition (GI) (OVCAR-5): inactive
- growth inhibition (GI) (SK-MEL-5): inactive
- growth inhibition (GI) (HCT-116): inactive
- growth inhibition (GI) (LOX IMVI): inactive
- growth inhibition (GI) (HOP-92): inactive
- growth inhibition (GI) (RPMI-8226): inactive
- growth inhibition (GI) (ACHN): inactive
- growth inhibition (GI) (TK-10): inactive
- zone of inhibition at 200 µg/disc (Escherichia coli): 8 mm
- growth inhibition (GI) (CAKI-1): inactive
- zone of inhibition at 200 µg/disc (Candida albicans): 8 mm
- growth inhibition (GI) (UO-31): inactive
- growth inhibition (GI) (M14): inactive
- growth inhibition (GI) (NCI/ADR-RES): inactive
- zone of inhibition at 200 µg/disc (Pseudomonas aeruginosa): 8 mm
- growth inhibition (GI) (SN12C): inactive
- growth inhibition (GI) (NCI-H522): inactive
- growth inhibition (GI) (HT-29): inactive
- growth inhibition (GI) (MDA-MB-435): inactive
- growth inhibition (GI) (786-0): inactive
- zone of inhibition at 200 µg/disc (Bacillus subtilis): 8 mm
- growth inhibition (GI) (Hs-578T): inactive
- growth inhibition (GI) (HCT-15): inactive
- growth inhibition (GI) (SNB-75): inactive
- growth inhibition (GI) (OVCAR-3): inactive
- growth inhibition (GI) (HCC 2998): inactive
- growth inhibition (GI) (SNB-19): inactive
- growth inhibition (GI) (K562): inactive
- growth inhibition (GI) (COLO 205): inactive
- growth inhibition (GI) (NCI-H226): inactive
- growth inhibition (GI) (MDA-MB-231): inactive
- IC50 (Dihydrofolate reductase): 8 µM
- growth inhibition (GI) (MOLT-4): inactive
- growth inhibition (GI) (UACC-257): inactive
- growth inhibition (GI) (U-251): inactive
- growth inhibition (GI) (OVCAR-4): inactive
- growth inhibition (GI) (HL-60(TB)): inactive
- growth inhibition (GI) (BT-549): inactive
- zone of inhibition at 200 µg/disc (Staphylococcus aureus): 8 mm
- growth inhibition (GI) (KM12): inactive
- growth inhibition (GI) (SF-539): inactive
- growth inhibition (GI) (SR): inactive
- growth inhibition (GI) (CCRF-CEM): inactive
- growth inhibition (GI) (Malme-3M): inactive
- growth inhibition (GI) (NCI-H460): inactive
- growth inhibition (GI) (MDA-MB-468): inactive
- growth inhibition (GI) (MCF7): inactive
- growth inhibition (GI) (SF-295): inactive
- growth inhibition (GI) (A549): inactive
- growth inhibition (GI) (NCI-H23): inactive
- growth inhibition (GI) (T47D): inactive
- growth inhibition (GI) (A498): inactive
- growth inhibition (GI) (SF-268): inactive
